Patent publication US20100298141A1, “SUBSTITUTED PYRIDINE N-OXIDE HERBICIDES” (E. I. DU PONT DE NEMOURS AND COMPANY, priority 2007, published 2010)

Experiments:
Assay in all cases: Test A pre-/postemergence greenhouse test
morningglory = format: in vivo, Ipomoea spp.; details: for Plant response rating, Morningglory: 0 to 100 scale where 0 is no effect and 100 is complete control; for Morningglory plant response rating: 0 to 100 scale
Source text: (§1) Seeds of barnyardgrass (Echinochloa crus-galli), crabgrass (Digitaria sanguinalis), giant foxtail (Setaria faberi), morningglory (Ipomoea spp.), redroot pigweed (Amaranthus retroflexus), velvetleaf (Abutilon theophrasti), wheat (Triticum aestivum), and corn (Zea mays) were planted into a blend of loam soil and sand and treated preemergence with a directed soil spray using test compounds formulated in a non-phytotoxic solvent mixture which included a surfactant. At the same time these species were also treated with postemergence applications of test compounds formulated in the same manner. Plants ranged in height from two to ten cm and were in the one- to two-leaf stage for the postemergence treatment. Treated plants and untreated controls were maintained in a greenhouse for approximately ten days, after which time all treated plants were compared to untreated controls and visually evaluated for injury. […] A dash (-) response means no test results.

corn = format: in vivo, Zea mays; details: for Plant response rating, Corn: 0 to 100 scale where 0 is no effect and 100 is complete control; for Corn plant response rating: 0 to 100 scale
Source text: as §1

crabgrass = format: in vivo, Digitaria sanguinalis; details: for Plant response rating, Crabgrass, Large: 0 to 100 scale where 0 is no effect and 100 is complete control; for Crabgrass, Large plant response rating: 0 to 100 scale
Source text: as §1

wheat = format: in vivo, Triticum aestivum; details: for Plant response rating, Wheat: 0 to 100 scale where 0 is no effect and 100 is complete control; for Wheat plant response rating: 0 to 100 scale
Source text: as §1

barnyardgrass = format: in vivo, Echinochloa crus-galli; details: for Plant response rating, Barnyardgrass: 0 to 100 scale where 0 is no effect and 100 is complete control; for Barnyardgrass plant response rating: 0 to 100 scale
Source text: as §1

velvetleaf = format: in vivo, Abutilon theophrasti; details: for Plant response rating, Velvetleaf: 0 to 100 scale where 0 is no effect and 100 is complete control; for Velvetleaf plant response rating: 0 to 100 scale
Source text: as §1

redroot pigweed = format: in vivo, Amaranthus retroflexus; details: for Plant response rating, Pigweed: 0 to 100 scale where 0 is no effect and 100 is complete control; for Pigweed plant response rating: 0 to 100 scale
Source text: as §1

giant foxtail = format: in vivo, Setaria faberi; details: for Plant response rating, Foxtail, Giant: 0 to 100 scale where 0 is no effect and 100 is complete control; for Foxtail, Giant plant response rating: 0 to 100 scale
Source text: as §1

[1] = Postemergence, 500 g ai/ha, 0 is no effect, 100 is complete control
[2] = Preemergence, 125 g ai/ha, 0 no effect, 100 complete control
[3] = Preemergence, 500 g ai/ha, 0 no effect, 100 complete control

SMILES	Plant response rating, Morningglory (morningglory; Postemergence, 125 g ai/ha)	Morningglory plant response rating (morningglory; [1])	Morningglory plant response rating (morningglory; [2])	Morningglory plant response rating (morningglory; [3])	Plant response rating, Corn (corn; Postemergence, 125 g ai/ha)	Corn plant response rating (corn; [1])	Corn plant response rating (corn; [2])	Corn plant response rating (corn; [3])	Plant response rating, Crabgrass, Large (crabgrass; Postemergence, 125 g ai/ha)	Crabgrass, Large plant response rating (crabgrass; [1])	Crabgrass, Large plant response rating (crabgrass; [2])	Crabgrass, Large plant response rating (crabgrass; [3])	Plant response rating, Wheat (wheat; Postemergence, 125 g ai/ha)	Wheat plant response rating (wheat; [1])	Wheat plant response rating (wheat; [2])	Wheat plant response rating (wheat; [3])	Plant response rating, Barnyardgrass (barnyardgrass; Postemergence, 125 g ai/ha)	Barnyardgrass plant response rating (barnyardgrass; [1])	Barnyardgrass plant response rating (barnyardgrass; [2])	Barnyardgrass plant response rating (barnyardgrass; [3])	other results
Cn1nc(C(F)(F)F)c(C[S+]([O-])c2cc(C3CC3)cc[n+]2[O-])c1OCC(F)(F)F (stereo not drawn) [Compound 121]	40	60	40	90	20	60	60	90	30	80	100	100	30	50	60	100	50	70	100	100	Plant response rating, Velvetleaf (velvetleaf; Postemergence, 125 g ai/ha): 40; Velvetleaf plant response rating (velvetleaf; [1]): 70; Velvetleaf plant response rating (velvetleaf; [2]): 60; Velvetleaf plant response rating (velvetleaf; [3]): 80; Plant response rating, Pigweed (redroot pigweed; Postemergence, 125 g ai/ha): 60; Pigweed plant response rating (redroot pigweed; [1]): 70; Pigweed plant response rating (redroot pigweed; [2]): 100; Pigweed plant response rating (redroot pigweed; [3]): 100; Plant response rating, Foxtail, Giant (giant foxtail; Postemergence, 125 g ai/ha): 50; Foxtail, Giant plant response rating (giant foxtail; [1]): 80; Foxtail, Giant plant response rating (giant foxtail; [2]): 100; Foxtail, Giant plant response rating (giant foxtail; [3]): 100
CCCc1cc[n+]([O-])c([S+]([O-])Cc2c(C(F)(F)F)nn(C)c2OCC(F)(F)F)c1 (stereo not drawn) [Compound 114]	60	70	70	90	60	70	30	80	50	80	90	100	50	70	60	90	50	80	90	100	Plant response rating, Velvetleaf (velvetleaf; Postemergence, 125 g ai/ha): 50; Velvetleaf plant response rating (velvetleaf; [1]): 60; Velvetleaf plant response rating (velvetleaf; [2]): 60; Velvetleaf plant response rating (velvetleaf; [3]): 80; Plant response rating, Pigweed (redroot pigweed; Postemergence, 125 g ai/ha): 70; Pigweed plant response rating (redroot pigweed; [1]): 90; Pigweed plant response rating (redroot pigweed; [2]): 100; Pigweed plant response rating (redroot pigweed; [3]): 100; Plant response rating, Foxtail, Giant (giant foxtail; Postemergence, 125 g ai/ha): 80; Foxtail, Giant plant response rating (giant foxtail; [1]): 90; Foxtail, Giant plant response rating (giant foxtail; [2]): 100; Foxtail, Giant plant response rating (giant foxtail; [3]): 100
Cn1nc(C(F)(F)F)c(C[S+]([O-])c2cc(C3CC3)cc[n+]2[O-])c1OC(F)F (stereo not drawn) [Compound 120]	50	80	80	90	30	70	80	90	50	80	90	90	40	50	50	100	60	70	80	100	Plant response rating, Velvetleaf (velvetleaf; Postemergence, 125 g ai/ha): 60; Velvetleaf plant response rating (velvetleaf; [1]): 80; Velvetleaf plant response rating (velvetleaf; [2]): 60; Velvetleaf plant response rating (velvetleaf; [3]): 80; Plant response rating, Pigweed (redroot pigweed; Postemergence, 125 g ai/ha): 60; Pigweed plant response rating (redroot pigweed; [1]): 80; Pigweed plant response rating (redroot pigweed; [2]): 100; Pigweed plant response rating (redroot pigweed; [3]): 100; Plant response rating, Foxtail, Giant (giant foxtail; Postemergence, 125 g ai/ha): 80; Foxtail, Giant plant response rating (giant foxtail; [1]): 90; Foxtail, Giant plant response rating (giant foxtail; [2]): 100; Foxtail, Giant plant response rating (giant foxtail; [3]): 100
